Measured values published in patent US10485235B2, “Aryloxypyrimidinyl ethers as herbicides” (FMC Corporation, priority 2015, dated 2019).

system: kochia (Kochia scoparia); test: Test A preemergence, kochia; type: in vivo; settings: Bassia scoparia, pre-emergence, 240 h; Preemergence, 31 g ai/ha; 0 to 100 scale (0 no effect, 100 complete control); read-out: Plant response rating, Kochia
How it was run: (§1)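 Plants grown in pots of loam blended with sand were treated either before emergence, via directed soil spray, or after emergence at the one- to two-leaf stage. Following about 10 days in the greenhouse, each treatment was visually compared with untreated controls and rated from 0 (no effect) to 100 (complete control).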

SMILES | pest or weed control at 31 g/ha [%]
N#Cc1cccc(Oc2ncc(Cl)cn2)c1OCCC(F)(F)F [Compound 23, 3-[(5-chloro-2-pyrimidinyl)oxy]-2-(3,3,3-trifluoropropoxy)benzonitrile] | 100

same assay, conditions: Bassia scoparia, pre-emergence, 240 h; Preemergence, 125 g ai/ha; 0 to 100 scale (0 no effect, 100 complete control); read-out: Plant response rating, Kochia

SMILES | pest or weed control at 125 g/ha [%]
N#Cc1cccc(Oc2ncc(Cl)cn2)c1OCCC(F)(F)F [Compound 23, 3-[(5-chloro-2-pyrimidinyl)oxy]-2-(3,3,3-trifluoropropoxy)benzonitrile] | 100

system: barnyardgrass (Echinochloa crus-galli); test: Test B flooded paddy test, barnyardgrass; type: in vivo; settings: Echinochloa crus-galli; 250 g ai/ha, Flood; visual rating after 13 to 15 days; scale 0 to 100, 0 is no effect, 100 is complete control; read-out: Plant response rating, Barnyardgrass
How it was run: (§2)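 Visual ratings, 0 = no effect to 100 = complete control, versus controls after 13 to 15 days in greenhouse. Test compounds were added to paddy water kept 3 cm over the soil surface, on plants at 2-leaf stage.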

SMILES | pest or weed control at 250 g/ha [%]
N#Cc1cccc(Oc2ncc(Cl)cn2)c1OCCC(F)(F)F [Compound 23, 3-[(5-chloro-2-pyrimidinyl)oxy]-2-(3,3,3-trifluoropropoxy)benzonitrile] | 50

system: ragweed (common ragweed, Ambrosia elatior); test: Test A postemergence, ragweed; type: in vivo; settings: Ambrosia artemisiifolia, post-emergence, 240 h; 31 g ai/ha, postemergence; 0 to 100 scale, 0 is no effect, 100 is complete control; approximately 10 days; read-out: Plant response rating, Ragweed
How it was run: as §1

SMILES | pest or weed control at 31 g/ha [%]
N#Cc1cccc(Oc2ncc(Cl)cn2)c1OCCC(F)(F)F [Compound 23, 3-[(5-chloro-2-pyrimidinyl)oxy]-2-(3,3,3-trifluoropropoxy)benzonitrile] | 0

same assay, conditions: Ambrosia artemisiifolia, post-emergence, 240 h; 125 g ai/ha, postemergence; 0 to 100 scale, 0 is no effect, 100 is complete control; approximately 10 days; read-out: Plant response rating, Ragweed

SMILES | pest or weed control at 125 g/ha [%]
N#Cc1cccc(Oc2ncc(Cl)cn2)c1OCCC(F)(F)F [Compound 23, 3-[(5-chloro-2-pyrimidinyl)oxy]-2-(3,3,3-trifluoropropoxy)benzonitrile] | 30

system: pigweed (Amaranthus retroflexus); test: Test A preemergence, pigweed; type: in vivo; settings: Amaranthus retroflexus, pre-emergence, 240 h; Preemergence, 31 g ai/ha; 0 to 100 scale (0 no effect, 100 complete control); read-out: Plant response rating, Pigweed
How it was run: as §1

SMILES | pest or weed control at 31 g/ha [%]
N#Cc1cccc(Oc2ncc(Cl)cn2)c1OCCC(F)(F)F [Compound 23, 3-[(5-chloro-2-pyrimidinyl)oxy]-2-(3,3,3-trifluoropropoxy)benzonitrile] | 100

same assay, conditions: Amaranthus retroflexus, pre-emergence, 240 h; Preemergence, 125 g ai/ha; 0 to 100 scale (0 no effect, 100 complete control); read-out: Plant response rating, Pigweed

SMILES | pest or weed control at 125 g/ha [%]
N#Cc1cccc(Oc2ncc(Cl)cn2)c1OCCC(F)(F)F [Compound 23, 3-[(5-chloro-2-pyrimidinyl)oxy]-2-(3,3,3-trifluoropropoxy)benzonitrile] | 100

system: pigweed (Amaranthus retroflexus); test: Test A postemergence, pigweed; type: in vivo; settings: Amaranthus retroflexus, post-emergence, 240 h; 31 g ai/ha, postemergence; 0 to 100 scale, 0 is no effect, 100 is complete control; approximately 10 days; read-out: Plant response rating, Pigweed
How it was run: as §1

SMILES | pest or weed control at 31 g/ha [%]
N#Cc1cccc(Oc2ncc(Cl)cn2)c1OCCC(F)(F)F [Compound 23, 3-[(5-chloro-2-pyrimidinyl)oxy]-2-(3,3,3-trifluoropropoxy)benzonitrile] | 100

same assay, conditions: Amaranthus retroflexus, post-emergence, 240 h; 125 g ai/ha, postemergence; 0 to 100 scale, 0 is no effect, 100 is complete control; approximately 10 days; read-out: Plant response rating, Pigweed

SMILES | pest or weed control at 125 g/ha [%]
N#Cc1cccc(Oc2ncc(Cl)cn2)c1OCCC(F)(F)F [Compound 23, 3-[(5-chloro-2-pyrimidinyl)oxy]-2-(3,3,3-trifluoropropoxy)benzonitrile] | 100

system: sedge, umbrella (small-flower umbrella sedge, Cyperus difformis); test: Test B flooded paddy test, umbrella sedge; type: in vivo; settings: Cyperus difformis; 250 g ai/ha, Flood; visual rating after 13 to 15 days; scale 0 to 100, 0 is no effect, 100 is complete control; read-out: Plant response rating, Sedge, Umbrella
How it was run: as §2

SMILES | pest or weed control at 250 g/ha [%]
N#Cc1cccc(Oc2ncc(Cl)cn2)c1OCCC(F)(F)F [Compound 23, 3-[(5-chloro-2-pyrimidinyl)oxy]-2-(3,3,3-trifluoropropoxy)benzonitrile] | 100

system: ragweed (common ragweed, Ambrosia elatior); test: Test A preemergence, ragweed; type: in vivo; settings: Ambrosia artemisiifolia, pre-emergence, 240 h; Preemergence, 31 g ai/ha; 0 to 100 scale (0 no effect, 100 complete control); read-out: Plant response rating, Ragweed
How it was run: as §1

SMILES | pest or weed control at 31 g/ha [%]
N#Cc1cccc(Oc2ncc(Cl)cn2)c1OCCC(F)(F)F [Compound 23, 3-[(5-chloro-2-pyrimidinyl)oxy]-2-(3,3,3-trifluoropropoxy)benzonitrile] | 0

same assay, conditions: Ambrosia artemisiifolia, pre-emergence, 240 h; Preemergence, 125 g ai/ha; 0 to 100 scale (0 no effect, 100 complete control); read-out: Plant response rating, Ragweed

SMILES | pest or weed control at 125 g/ha [%]
N#Cc1cccc(Oc2ncc(Cl)cn2)c1OCCC(F)(F)F [Compound 23, 3-[(5-chloro-2-pyrimidinyl)oxy]-2-(3,3,3-trifluoropropoxy)benzonitrile] | 90

system: barnyardgrass (Echinochloa crus-galli); test: Test A preemergence, barnyardgrass; type: in vivo; settings: Echinochloa crus-galli, pre-emergence, 240 h; Preemergence, 31 g ai/ha; 0 to 100 scale (0 no effect, 100 complete control); read-out: Plant response rating, Barnyardgrass
How it was run: as §1

SMILES | pest or weed control at 31 g/ha [%]
N#Cc1cccc(Oc2ncc(Cl)cn2)c1OCCC(F)(F)F [Compound 23, 3-[(5-chloro-2-pyrimidinyl)oxy]-2-(3,3,3-trifluoropropoxy)benzonitrile] | 70

same assay, conditions: Echinochloa crus-galli, pre-emergence, 240 h; Preemergence, 125 g ai/ha; 0 to 100 scale (0 no effect, 100 complete control); read-out: Plant response rating, Barnyardgrass

SMILES | pest or weed control at 125 g/ha [%]
N#Cc1cccc(Oc2ncc(Cl)cn2)c1OCCC(F)(F)F [Compound 23, 3-[(5-chloro-2-pyrimidinyl)oxy]-2-(3,3,3-trifluoropropoxy)benzonitrile] | 100

system: corn (Zea mays); test: Test A postemergence, corn; type: in vivo; settings: Zea mays, post-emergence, 240 h; 31 g ai/ha, postemergence; 0 to 100 scale, 0 is no effect, 100 is complete control; approximately 10 days
How it was run: as §1

SMILES | Corn plant response rating (crop injury, 0 = no effect, 100 = complete kill) at 31 g/ha [%]
N#Cc1cccc(Oc2ncc(Cl)cn2)c1OCCC(F)(F)F [Compound 23, 3-[(5-chloro-2-pyrimidinyl)oxy]-2-(3,3,3-trifluoropropoxy)benzonitrile] | 10

same assay, conditions: Zea mays, post-emergence, 240 h; 125 g ai/ha, postemergence; 0 to 100 scale, 0 is no effect, 100 is complete control; approximately 10 days

SMILES | Corn plant response rating (crop injury, 0 = no effect, 100 = complete kill) at 125 g/ha [%]
N#Cc1cccc(Oc2ncc(Cl)cn2)c1OCCC(F)(F)F [Compound 23, 3-[(5-chloro-2-pyrimidinyl)oxy]-2-(3,3,3-trifluoropropoxy)benzonitrile] | 90

system: foxtail, giant (giant foxtail, Setaria faberii); test: Test A preemergence, giant foxtail; type: in vivo; settings: Setaria faberi, pre-emergence, 240 h; Preemergence, 31 g ai/ha; 0 to 100 scale (0 no effect, 100 complete control); read-out: Plant response rating, Foxtail, Giant
How it was run: as §1

SMILES | pest or weed control at 31 g/ha [%]
N#Cc1cccc(Oc2ncc(Cl)cn2)c1OCCC(F)(F)F [Compound 23, 3-[(5-chloro-2-pyrimidinyl)oxy]-2-(3,3,3-trifluoropropoxy)benzonitrile] | 90

same assay, conditions: Setaria faberi, pre-emergence, 240 h; Preemergence, 125 g ai/ha; 0 to 100 scale (0 no effect, 100 complete control); read-out: Plant response rating, Foxtail, Giant

SMILES | pest or weed control at 125 g/ha [%]
N#Cc1cccc(Oc2ncc(Cl)cn2)c1OCCC(F)(F)F [Compound 23, 3-[(5-chloro-2-pyrimidinyl)oxy]-2-(3,3,3-trifluoropropoxy)benzonitrile] | 100

system: blackgrass (Alopecurus myosuroides); test: Test A postemergence, blackgrass; type: in vivo; settings: Alopecurus myosuroides, post-emergence, 240 h; 31 g ai/ha, postemergence; 0 to 100 scale, 0 is no effect, 100 is complete control; approximately 10 days; read-out: Plant response rating, Blackgrass
How it was run: as §1

SMILES | pest or weed control at 31 g/ha [%]
N#Cc1cccc(Oc2ncc(Cl)cn2)c1OCCC(F)(F)F [Compound 23, 3-[(5-chloro-2-pyrimidinyl)oxy]-2-(3,3,3-trifluoropropoxy)benzonitrile] | 20

same assay, conditions: Alopecurus myosuroides, post-emergence, 240 h; 125 g ai/ha, postemergence; 0 to 100 scale, 0 is no effect, 100 is complete control; approximately 10 days; read-out: Plant response rating, Blackgrass

SMILES | pest or weed control at 125 g/ha [%]
N#Cc1cccc(Oc2ncc(Cl)cn2)c1OCCC(F)(F)F [Compound 23, 3-[(5-chloro-2-pyrimidinyl)oxy]-2-(3,3,3-trifluoropropoxy)benzonitrile] | 70

system: ryegrass, Italian (Italian ryegrass, Lolium multiflorum); test: Test A preemergence, Italian ryegrass; type: in vivo; settings: Lolium multiflorum, pre-emergence, 240 h; Preemergence, 31 g ai/ha; 0 to 100 scale (0 no effect, 100 complete control); read-out: Plant response rating, Ryegrass, Italian
How it was run: as §1

SMILES | pest or weed control at 31 g/ha [%]
N#Cc1cccc(Oc2ncc(Cl)cn2)c1OCCC(F)(F)F [Compound 23, 3-[(5-chloro-2-pyrimidinyl)oxy]-2-(3,3,3-trifluoropropoxy)benzonitrile] | 0

same assay, conditions: Lolium multiflorum, pre-emergence, 240 h; Preemergence, 125 g ai/ha; 0 to 100 scale (0 no effect, 100 complete control); read-out: Plant response rating, Ryegrass, Italian

SMILES | pest or weed control at 125 g/ha [%]
N#Cc1cccc(Oc2ncc(Cl)cn2)c1OCCC(F)(F)F [Compound 23, 3-[(5-chloro-2-pyrimidinyl)oxy]-2-(3,3,3-trifluoropropoxy)benzonitrile] | 30

system: rice (Oryza sativa); test: Test B flooded paddy test, rice; type: in vivo; settings: Oryza sativa; 250 g ai/ha, Flood; visual rating after 13 to 15 days; scale 0 to 100, 0 is no effect, 100 is complete control; read-out: Plant response rating, Rice
How it was run: as §2

SMILES | plant injury at 250 g/ha [%]
N#Cc1cccc(Oc2ncc(Cl)cn2)c1OCCC(F)(F)F [Compound 23, 3-[(5-chloro-2-pyrimidinyl)oxy]-2-(3,3,3-trifluoropropoxy)benzonitrile] | 30

system: ducksalad (Heteranthera limosa); test: Test B flooded paddy test, ducksalad; type: in vivo; settings: Heteranthera limosa; 250 g ai/ha, Flood; visual rating after 13 to 15 days; scale 0 to 100, 0 is no effect, 100 is complete control; read-out: Plant response rating, Ducksalad
How it was run: as §2

SMILES | pest or weed control at 250 g/ha [%]
N#Cc1cccc(Oc2ncc(Cl)cn2)c1OCCC(F)(F)F [Compound 23, 3-[(5-chloro-2-pyrimidinyl)oxy]-2-(3,3,3-trifluoropropoxy)benzonitrile] | 100

system: wheat (Triticum aestivum); test: Test A postemergence, wheat; type: in vivo; settings: Triticum aestivum, post-emergence, 240 h; 31 g ai/ha, postemergence; 0 to 100 scale, 0 is no effect, 100 is complete control; approximately 10 days; read-out: Plant response rating, Wheat
How it was run: as §1

SMILES | plant injury at 31 g/ha [%]
N#Cc1cccc(Oc2ncc(Cl)cn2)c1OCCC(F)(F)F [Compound 23, 3-[(5-chloro-2-pyrimidinyl)oxy]-2-(3,3,3-trifluoropropoxy)benzonitrile] | 20

same assay, conditions: Triticum aestivum, post-emergence, 240 h; 125 g ai/ha, postemergence; 0 to 100 scale, 0 is no effect, 100 is complete control; approximately 10 days; read-out: Plant response rating, Wheat

SMILES | plant injury at 125 g/ha [%]
N#Cc1cccc(Oc2ncc(Cl)cn2)c1OCCC(F)(F)F [Compound 23, 3-[(5-chloro-2-pyrimidinyl)oxy]-2-(3,3,3-trifluoropropoxy)benzonitrile] | 70
